# Test results taken from patent US20010004643A1, “Pharmaceutical composition with sotalol combination and their use in treatment of cardiac ailments” (priority 1999, published 2001).
# “Also recorded” adds a separate entry of the source. Marks after values point to notes of the source that are not given here.
# Tests used:
# [1] = tested on: beta adrenergic blockade, isolated right auricle preparation of rabbit; assay: Beta blocking potency (pA2 against isoprenaline) in isolated rabbit right auricle; settings: isoprenaline chronotropic response, Schild's plot
# Method: Estimation of the beta blockade of various ratios of d- and l- isomers of sotalol was carried out in the isolated right auricle preparation of rabbit. The spontaneously beating right atrium was dissected and mounted in a 20 ml tissue bath. The resting tension on the atria was set at 1 g. The contractions were recorded using a force displacement transducer. The spontaneous contractions of the right atria were recorded isometrically and the heart rate was obtained as a derived parameter using a ratemeter that gave the output in beats per minute. Six different ratios of d and l isomers were investigated (1:1, 2:1, 3:1, 4:1, 5:1 and 1:0). Dose-response-curves (DRC) for isoprenaline in the isolated atria, using the chronotropic response were determined by cumulative addition of isoprenaline. The pA2 values of each of the ratios were estimated using the classical Schild's plot (Schild, 1957) and the values are shown in Table 1.
# [2] = tested on: ouabain induced arrhythmia (VT, VF, mortality); assay: Ouabain induced arrhythmia model in guinea pig; type: in vivo; settings: for actual incidence of mortality (value in parenthesis): 60 min; for actual incidence of mortality (value in parenthesis) / actual incidence of VF (value in parenthesis) / actual incidence of VT (value in parenthesis): number of animals of the group; for % INCIDENCE OF MORTALITY: mortality at 60 min; for deaths due to conduction block (60 min), actual incidence (value in parenthesis) / deaths due to tachyarrhythmia (60 min), actual incidence (value in parenthesis): number of animals; for % INCIDENCE OF VF / % INCIDENCE OF VT: ouabain 240 μg/kg in three doses, observed one hour; for DEATHS DUE TO CONDUCTION BLOCK (60 MIN) Percentage / DEATHS DUE TO TACHYARRHYTHMIA (60 MIN) Percentage: percentage deaths out of total mortality; for cause of deaths / mortality compared with control groups: no dose stated
# Excerpt: Method: Guinea pigs (Dunken Hartley) of either sex weighing between 400 and 500 g were used for the study. The animals were anesthetized with urethane (1.25 g/kg. i.p.). The left common carotid artery and left jugular vein were cannulated for arterial blood pressure monitoring and intravenous access respectively. Lead II electrocardiogram, arterial blood pressure, mean arterial blood pressure (MABP), heart rate were monitored throughout the experiment.
# After initial surgical preparations and allowing 30 minutes for the animal to stabilise the first dose of ouabain (90 μg/kg) was administered over a period of one minute. After the interval of thirty minutes, second dose of ouabain (60 μg/kg) was administered over a period of one minute. One minute after this dose, 0.5 ml saline (in control experiments) was administered over a period of one minute. After an interval of 10 minutes a third dose of ouabain (90 μg/kg) was administered over a period of one minute. […] The test compounds were administered to animals in test group in place of saline to evaluate their antiarrhythmic potential. From the ECG recordings, the incidence of VT, VF and mortality were recorded. The doses of ratios of sotalol isomers studied were 0.1, 0.5 and 2.5 mg/kg.
# Interpretation of ECG recordings: Minor disturbance in rhythm was not considered while evaluating ventricular tachyarrhythmias. A run of more than 3 ventricular ectopic beats having wide QRS complexes associated with partial haemodynamic collapse was considered as Ventricular Tachycardia (VT). Total morphological irregularity of repetitive complexes for at least six cycles associated with complete haemodynamic collapse was considered as Ventricular Fibrillation (VF). Successful arrhythmia protection was defined as no occurrence of VT and VF from the injection of saline/test drug till the end of the experiment.
# Statistics: Chi square test with continuity correction at 95% confidence limit was applied to find out the statistical significance between control and test groups for incidence of VT, VF and mortality. Whenever, any of the value in a cell was less than 5, Fischer's exact probability test was used.
# Results: Different ratios of sotalol in the dose range from 0.02 mg/kg to 12.5 mg/kg were studied in individual groups of animals. In all 18 groups were studied and at least 6 animals were used in each group. In control animals ouabain 240 μg/kg in three divided doses induced reproducible ventricular tachyarrhythmias in guinea pigs. It was observed that ventricular arrhythmias appeared after the administration of the third dose. Guinea pigs which responded early i.e. before or within 1 min. of administration of the second dose, were considered early responders and were not included in the study. […] In the study, control experiments were carried out randomly interspersed in test groups. Among the 42 control animals the incidence of VT was 81%, incidence of VF was 71.4% and the incidence of mortality at 60 minutes was 61.9%.
# [3] = guinea pig, in vivo, listed as 2:1 ratio (d:l)
structure (smiles),measurement,setting,value
"CC(C)NCC(O)c1ccc(NS(C)(=O)=O)cc1 (stereo not shown) [2:1 RATIO, N-[4-[1-hydroxy-2-[(1-methylethyl)amino]ethyl]phenyl] methane sulfonamide]",pA2 Mean,[1]; listed as 2:1,6.28
same,protection against VF,[2]; 0.5 mg/kg,"some protection, it was not complete"
same,actual incidence of mortality (value in parenthesis),[2]; 0.5 mg/kg,(3)
same,protection against ouabain induced VT,"[2]; 0.5 mg/kg, listed as 2:1 ratio (d:l)","some protection, it was not significant"
same,% INCIDENCE OF MORTALITY,[2]; 0.5 mg/kg,50.0%
same,"deaths due to conduction block (60 min), actual incidence (value in parenthesis)",[2]; 0.5 mg/kg,(3)
same,"deaths due to tachyarrhythmia (60 min), actual incidence (value in parenthesis)",[2]; 0.5 mg/kg,(0)
same,actual incidence of VF (value in parenthesis),[2]; 0.5 mg/kg,(2)
same,actual incidence of VT (value in parenthesis),[2]; 0.5 mg/kg,(3)
same,% INCIDENCE OF VF,[2]; 0.5 mg/kg,33.3%
same,% INCIDENCE OF VT,[2]; 0.5 mg/kg,50.0%
same,DEATHS DUE TO CONDUCTION BLOCK (60 MIN) Percentage,[2]; 0.5 mg/kg,100.0%
same,DEATHS DUE TO TACHYARRHYTHMIA (60 MIN) Percentage,[2]; 0.5 mg/kg,00.0%
same,protection against mortality,[2]; 2.5 mg/kg,protected significantly
same,protection from deaths due to tachyarrhythmias,[2]; 2.5 mg/kg,completely protected
same,protection against arrhythmias (VT and VF),"[2]; 2.5 mg/kg, listed as 2:1",completely protects; also recorded: complete protection
same,% INCIDENCE OF MORTALITY,[2]; 2.5 mg/kg,16.6%
same,% INCIDENCE OF MORTALITY,"[2]; 2.5 mg/kg, listed as 2:1",16.6%
same,"deaths due to conduction block (60 min), actual incidence (value in parenthesis)",[2]; 2.5 mg/kg,(1)
same,"deaths due to tachyarrhythmia (60 min), actual incidence (value in parenthesis)",[2]; 2.5 mg/kg,(0)
same,actual incidence of VF (value in parenthesis),[2]; 2.5 mg/kg,(0)*
same,actual incidence of VT (value in parenthesis),[2]; 2.5 mg/kg,(0)*
same,% INCIDENCE OF VF,[2]; 2.5 mg/kg,00.0%
same,% INCIDENCE OF VT,[2]; 2.5 mg/kg,00.0%
same,DEATHS DUE TO CONDUCTION BLOCK (60 MIN) Percentage,[2]; 2.5 mg/kg,100.0%
same,DEATHS DUE TO TACHYARRHYTHMIA (60 MIN) Percentage,[2]; 2.5 mg/kg,00.0%
same,dose at which complete protection against VT was observed,[2]; [3],2.5 mg/kg
same,dose that completely protected against VF,[2]; [3],2.5 mg/kg
same,cause of deaths,[2],due to conduction abnormalities
same,mortality compared with control groups,[2],less than that of control groups
"CC(C)NCC(O)c1ccc(NS(C)(=O)=O)cc1 (stereo not shown) [3:1 RATIO, N-[4-[1-hydroxy-2-[(1-methylethyl)amino]ethyl]phenyl] methane sulfonamide]",pA2 Mean,[1]; listed as 3:1,6.15
same,actual incidence of mortality (value in parenthesis),[2]; 0.1 mg/kg,(2)
same,% INCIDENCE OF MORTALITY,[2]; 0.1 mg/kg,33.3%
same,"deaths due to conduction block (60 min), actual incidence (value in parenthesis)",[2]; 0.1 mg/kg,(1)
same,"deaths due to tachyarrhythmia (60 min), actual incidence (value in parenthesis)",[2]; 0.1 mg/kg,(1)
same,actual incidence of VF (value in parenthesis),[2]; 0.1 mg/kg,(4)
same,actual incidence of VT (value in parenthesis),[2]; 0.1 mg/kg,(4)
same,% INCIDENCE OF VF,[2]; 0.1 mg/kg,66.6%
same,% INCIDENCE OF VT,[2]; 0.1 mg/kg,66.6%
same,DEATHS DUE TO CONDUCTION BLOCK (60 MIN) Percentage,[2]; 0.1 mg/kg,50.0%
same,DEATHS DUE TO TACHYARRHYTHMIA (60 MIN) Percentage,[2]; 0.1 mg/kg,50.0%
same,actual incidence of mortality (value in parenthesis),[2]; 0.5 mg/kg,(3)
same,protection against ouabain induced VT,"[2]; 0.5 mg/kg, listed as 3:1 ratio (d:l)",showed protection
same,% INCIDENCE OF MORTALITY,[2]; 0.5 mg/kg,37.5%
same,"deaths due to conduction block (60 min), actual incidence (value in parenthesis)",[2]; 0.5 mg/kg,(3)
same,"deaths due to tachyarrhythmia (60 min), actual incidence (value in parenthesis)",[2]; 0.5 mg/kg,(0)*
same,actual incidence of VF (value in parenthesis),[2]; 0.5 mg/kg,(2)
same,actual incidence of VT (value in parenthesis),[2]; 0.5 mg/kg,(3)*
same,% INCIDENCE OF VF,[2]; 0.5 mg/kg,25.0%
same,% INCIDENCE OF VT,[2]; 0.5 mg/kg,37.5%
same,DEATHS DUE TO CONDUCTION BLOCK (60 MIN) Percentage,[2]; 0.5 mg/kg,100.0%
same,DEATHS DUE TO TACHYARRHYTHMIA (60 MIN) Percentage,[2]; 0.5 mg/kg,00.0%
same,protection against arrhythmias (VT and VF),[2]; 2.5 mg/kg,protected
same,protection from deaths due to tachyarrhythmias,[2]; 2.5 mg/kg,completely protected
same,actual incidence of mortality (value in parenthesis),[2]; 2.5 mg/kg,(2)
same,protection against arrhythmias (VT and VF),"[2]; 2.5 mg/kg, listed as 3:1",complete protection
same,% INCIDENCE OF MORTALITY,[2]; 2.5 mg/kg,33.3%
same,% INCIDENCE OF MORTALITY,"[2]; 2.5 mg/kg, listed as 3:1 ratio",33.3%
same,"deaths due to conduction block (60 min), actual incidence (value in parenthesis)",[2]; 2.5 mg/kg,(2)
same,"deaths due to tachyarrhythmia (60 min), actual incidence (value in parenthesis)",[2]; 2.5 mg/kg,(0)
same,actual incidence of VF (value in parenthesis),[2]; 2.5 mg/kg,(0)*
same,actual incidence of VT (value in parenthesis),[2]; 2.5 mg/kg,(0)*
same,% INCIDENCE OF VF,[2]; 2.5 mg/kg,00.0%
same,% INCIDENCE OF VT,[2]; 2.5 mg/kg,00.0%
same,DEATHS DUE TO CONDUCTION BLOCK (60 MIN) Percentage,[2]; 2.5 mg/kg,100.0%
same,DEATHS DUE TO TACHYARRHYTHMIA (60 MIN) Percentage,[2]; 2.5 mg/kg,00.0%
same,mortality,[2]; 0.5 and 2.5 mg/kg dose,low
same,dose at which complete protection against VT was observed,"[2]; guinea pig, in vivo, listed as 3:1 ratio (d:l)",2.5 mg/kg
same,cause of deaths,[2],due to conduction abnormalities
same,mortality compared with control groups,[2],less than that of control groups
